Test results taken from patent US20050043178A1, “Herbicidal and bacteriostatic compounds from centaurea maculosa” (Colorado State University Research Foundation, priority 2001, published 2005).
“Also recorded” adds a separate entry of the source.

Assays:
C. maculosa = assay: Effect on C. maculosa itself (autotoxicity); type: in vivo, Centaurea maculosa; details: FIG. 1(b and c)
Protocol: (§1) Root exudates collected from non-elicited cultures of C. maculosa were administered in different concentrations (1-3 ml v/v) in the MS basal liquid media containing different seedlings to analyze phenotypic explant response. ii) Effect of fungal cell wall (CWE) elicited root exudates of C. maculosa on shoots and root differentiation of different weeds and crop plants on 14th day. Fungal cell wall extracts (CWE) from Phytophthora cinnamoni and Rhizoctonia solani were used. Data represents the percent inhibition as compared to the untreated control in shooting and rooting response in various tested seedlings against non-elicited and elicited root exudates of C. maculosa. The seedlings tested against C. maculosa exudates were as follows:1: C. maculosa; 2: L. dalmatica; 3: V. thapsus; 4: B. tectorum, 5: K. scoparia; 6: C. diffusa; 7: A. thaliana 8: T. aestivum; 9: L. esculentum. [Means of different letters at the top of each bar indicate significant difference (p<0.05) (SEM±52df)]. • B) Effect of purified HPLC-fraction from C. maculosa root exudates on morphological differentiation of various weeds and food crops. HPLC peaks were collected and administered into 5 ml MS basal medium at 100 μg ml^−1 concentration; fractions were added in different permutations. i) C. maculosa; ii) C. diffusa; iii) K scoparia; iv) L. dalmatica; v) A.thaliana; vi) T. aestivum. […]

[1] = tested on: Arabidopsis thaliana shoot cultures; assay: Phytotoxicity (MIC, shoot and root differentiation) on Arabidopsis thaliana in MS basal medium; type: in vivo; details: for minimum inhibitory concentration (MIC): Arabidopsis thaliana shoot cultures in vitro
Protocol: (§2) Catechin and 2, 4-D were administered in MS basal medium at different concentration range (1-200 μg ml^−1) to check for the minimum inhibitory concentration (MIC). i) 10 μg ml^−1; ii) 60 μg ml^−1; iii) 100 μg ml^−1. • B) Effect of catechin on shoot and root differentiation in A. thaliana plants on the 14th day. Catechin was compared for phytoxicity against 2, 4-D and was administered at 100 μg ml^−1 concentration in MS basal medium (5 ml). Treatments were as follows: 1) Untreated control; 2) (+)-catechin; 3) (−)-catechin; 4) (±)-catechin; 5) (+/−) co-administered catechin; 6) (±) catechin isolated from root exudates of C. maculosa; 7) 2, 4-D. [Means of different letters at the top of each bar indicate significant difference (p<0.05) (SEM±52df)]. • C) Antibacterial activity of (+)-catechin on different bacterial strains. i) Tube antibacterial assay. 1) Control (without (+)-catechin); 2) (+)-catechin 100 μg ml^−1; 3) (+)-catechin 150 μg ml^−1; 4) (+)-catechin 200 μg ml^−1. Bacterial cultures were grown overnight at 24° C. in liquid LB media to an optical density of 0.2 at 600 nm. Different concentrations (100-200 μg ml^−1) of (+)-catechin were administered to the bacteria-containing LB media. Optical density at 600 nm was checked after 24 hrs of incubation to measure bacterial inhibition in tubes. Antibacterial activity was assayed on both tubes and 35 mm plates. ii) Antibacterial activity of (+)-catechin on Pseudomonas fluorescens analyzed in a petri dish assay. Treatments on petri dish refers to the following concentrations: 1) Methanol ((+)-catechin solvent) was used as a control; II) (−)-catechin (100 μg ml^−1); III) (+)-catechin (100 μg/ml); IV) (±)-catechin (200 μg ml^−1); V) (±)-catechin (200 μg ml^−1) isolated from root exudates of C. maculosa.
Root exudates of in vitro-grown C. maculosa plants were assayed for their effects on the phenotypic response and germnination efficiency of various weeds, including Linaria dalmatica (Dalmatian toadflax), Verbascum thapsus (common mullein), Bromos tectorum (downy brome), Kochia scoparia (kochia), Centaurea diffusa (diffuse knapweed), the model plant Arabidopsis thaliana and crops such as wheat (Triticum aestivum) and tomato (Lycopersicon esculentum). Ten day old seedlings and seeds of C. maculosa, L. dalmatica, V. thapsus, B. tectorum, K. scoparia, C. diffusa, A. thaliana, T. aestivum and L. esculetum were placed on MS basal medium in petri dishes after initial surface sterilization. Petri dishes were kept under a 16 hour light and 8 hour dark photoperiod in an incubator (Lab-Line). An additional objective was to check the effect of allelochemicals from C. maculosa on growth and differentiation of food crops such as Triticum aestivum (Wheat) and Lycopersicon esculetum (Tomato). This was of interest as wheat is known to produce an allelopathic effect in its root exudates (H. Wu, T. Haig, J. Prateley, D. Lemerle, M. An, J. Food Agric Chem. 48, 5321 (2000)). Root exudates collected from non-elicited and elicited cultures of C. maculosa were administered in different concentrations (1-3 ml v/v) over the surface sterilized seeds and seedlings to analyze their phytotoxic effects. […] After incubation, growth parameters such as length of shoots, number of shoots and length of primary root of the treated and untreated plants were measured. […]

Erwinia carotovora = assay: Tube antibacterial assay (OD 600 nm after 24 hrs); type: cell-based; details: 100-200 μg/ml
Protocol: as §2
(§3) Antibacterial plate assay was performed on a bacterial culture grown overnight; both the enantiomers and the racemic catechin were added to the paper discs and allowed to dry under laminar hood conditions. […] Visual observations for inhibition zone were recorded after 24 hrs. […]

[2] = tested on: Agrobacterium rhizogenes (15834); assay: Tube antibacterial assay (OD 600 nm after 24 hrs); type: cell-based; details: even at higher concentrations
Protocol: as §2, §3

Xanthomonas campestris = assay: Tube antibacterial assay (OD 600 nm after 24 hrs); type: cell-based; details: 100-200 μg/ml
Protocol: as §2, §3

Pseudomonas fluorescens = assay: Tube and plate antibacterial assay; type: cell-based; details: 100-200 μg/ml, 24 hrs
Protocol: Catechin and 2, 4-D were administered in MS basal medium at different concentration range (1-200 μg ml^−1) to check for the minimum inhibitory concentration (MIC). i) 10 μg ml^−1; ii) 60 μg ml^−1; iii) 100 μg ml^−1. • B) Effect of catechin on shoot and root differentiation in A. thaliana plants on the 14th day. Catechin was compared for phytoxicity against 2, 4-D and was administered at 100 μg ml^−1 concentration in MS basal medium (5 ml). Treatments were as follows: 1) Untreated control; 2) (+)-catechin; 3) (−)-catechin; 4) (±)-catechin; 5) (+/−) co-administered catechin; 6) (±) catechin isolated from root exudates of C. maculosa; 7) 2, 4-D. [Means of different letters at the top of each bar indicate significant difference (p<0.05) (SEM±52df)]. • C) Antibacterial activity of (+)-catechin on different bacterial strains. i) Tube antibacterial assay. […] Antibacterial activity was assayed on both tubes and 35 mm plates. ii) Antibacterial activity of (+)-catechin on Pseudomonas fluorescens analyzed in a petri dish assay. […]
as §3

soil borne bacteria = assay: Antibacterial assay on soil borne bacteria (six strains); type: cell-based; details: six bacterial strains / soil-borne pathogens tested
Protocol: as §2, §3

[3] = tested on: various weeds and crop plants; assay: Phytotoxic effect on seedlings of weeds and crop plants; type: in vivo; details: incl. C. diffusa
Protocol: as §1

**Q.** How did the “resistance of C. maculosa” value (C. maculosa) turn out when `Oc1cc(O)c2c(c1)OC(c1ccc(O)c(O)c1)C(O)C2` (racemic) [(±)-catechin] was run?
**A.** strongly resistant

**Q.** What about the “minimum inhibitory concentration (MIC)” value [1] of the same compound?
**A.** about 100 μg/ml

**Q.** What about the “effect compared with root exudated (±)-catechin” value ([1]; commercially available racemate, FIG. 2(a and b)) of the same compound?
**A.** same effect as root exudated (±)-catechin

**Q.** Which “minimum inhibitory concentration (MIC)” value [1] does the source give for `O=C(O)COc1ccc(Cl)cc1Cl` [2,4-D, 2,4-dichlorophenoxyacetic acid, reference compound] here?
**A.** 10 µg/mL

**Q.** With `Oc1cc(O)c2c(c1)O[C@H](c1ccc(O)c(O)c1)[C@@H](O)C2` [(+)-catechin] as the compound, how does the “inhibition of growth (decrease in optical density)” value (Erwinia carotovora) read?
**A.** distinct inhibition of growth

**Q.** What about the inhibition of growth [2] of the same compound?
**A.** not affected

**Q.** And the “inhibition of growth (decrease in optical density)” value (Xanthomonas campestris)?
**A.** distinct inhibition of growth

**Q.** What about the “inhibition of growth (decrease in optical density)” value (Pseudomonas fluorescens) of the same compound?
**A.** distinct inhibition of growth

**Q.** And the “allelochemical activity / phytotoxicity” value ([1]; A. thaliana, FIGS. 2 a, b)?
**A.** not phytotoxic; also recorded: did not show allelochemical activity

**Q.** What about the antibacterial activity (soil borne bacteria) of the same compound?
**A.** antibacterial activity against root infesting pathogens; also recorded: most showed a degree of inhibition

**Q.** For (−)-catechin [(−)catechin], which “spectrum of phytotoxicity / allelochemical activity” value [3] is on record?
**A.** broad-spectrum phytotoxicity

**Q.** What about the “doses accounting for the allelochemical activity (as low as)” value ([1]; A. thaliana, FIGS. 2 a, b) of the same compound?
**A.** 50 to 60 µg/mL

**Q.** And the antibacterial activity (soil borne bacteria)?
**A.** failed to show any antibacterial activity

**Q.** And the antibacterial activity (soil borne bacteria; listed as (−)-catechin)?
**A.** does not show
